Read-outs that look alike come from different tables or passages of the source.
How the values were obtained:
[1] = target: HDAC 5 (Homo sapiens, UniProt Q9UQL6)
Experimental: (§1) Test materials were stored at room temperature and stock solutions were prepared at 20 mg/ml in DMSO. Further dilutions were made in sterile distilled water immediately before being added to the reaction mixture containing a substrate, and the reaction was triggered by the addition of purified HDAC enzymes, Double distilled water was the negative control and trichostatin (1.5 ug/ml) was used as a positive control for validation of each study. The test procedure was as directed in the assay kits. The products of the reactions were measured by fluorometry at ex/em 350/450 nm using multi-well plate fluorometer Cytofluor 4000 (Applied Biosystem, Foster City, CA) or using SpectraMax i3× Multi-Mode Detection Platform from Molecular Devices (Sunnyvale, CA).
(§2) Statistical significance was assessed with a two-tail Student test. Deviations of ≤20% as compared to water control with p values below 0.05 were considered statistically significant.

[2] = target: T1, HDAC 8 (Homo sapiens, UniProt Q9BY41)
T1 sequence (Q9BY41 1-377): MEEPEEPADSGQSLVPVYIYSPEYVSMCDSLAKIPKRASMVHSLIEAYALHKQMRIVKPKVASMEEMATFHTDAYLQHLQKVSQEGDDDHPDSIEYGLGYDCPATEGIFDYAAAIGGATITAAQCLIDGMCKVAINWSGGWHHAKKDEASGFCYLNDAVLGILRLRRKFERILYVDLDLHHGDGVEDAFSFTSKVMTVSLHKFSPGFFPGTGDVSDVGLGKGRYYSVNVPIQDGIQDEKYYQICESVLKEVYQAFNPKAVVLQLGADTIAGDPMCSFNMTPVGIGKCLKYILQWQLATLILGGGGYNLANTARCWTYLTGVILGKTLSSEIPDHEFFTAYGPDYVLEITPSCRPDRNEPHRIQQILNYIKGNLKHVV
Experimental: as §1, §2

[3] = target: HDAC2 (Homo sapiens, UniProt Q92769)
Experimental: as §1, §2

[4] = target: T2, HDAC7 (Homo sapiens, UniProt Q8WUI4)
T2 sequence (Q8WUI4 1-952): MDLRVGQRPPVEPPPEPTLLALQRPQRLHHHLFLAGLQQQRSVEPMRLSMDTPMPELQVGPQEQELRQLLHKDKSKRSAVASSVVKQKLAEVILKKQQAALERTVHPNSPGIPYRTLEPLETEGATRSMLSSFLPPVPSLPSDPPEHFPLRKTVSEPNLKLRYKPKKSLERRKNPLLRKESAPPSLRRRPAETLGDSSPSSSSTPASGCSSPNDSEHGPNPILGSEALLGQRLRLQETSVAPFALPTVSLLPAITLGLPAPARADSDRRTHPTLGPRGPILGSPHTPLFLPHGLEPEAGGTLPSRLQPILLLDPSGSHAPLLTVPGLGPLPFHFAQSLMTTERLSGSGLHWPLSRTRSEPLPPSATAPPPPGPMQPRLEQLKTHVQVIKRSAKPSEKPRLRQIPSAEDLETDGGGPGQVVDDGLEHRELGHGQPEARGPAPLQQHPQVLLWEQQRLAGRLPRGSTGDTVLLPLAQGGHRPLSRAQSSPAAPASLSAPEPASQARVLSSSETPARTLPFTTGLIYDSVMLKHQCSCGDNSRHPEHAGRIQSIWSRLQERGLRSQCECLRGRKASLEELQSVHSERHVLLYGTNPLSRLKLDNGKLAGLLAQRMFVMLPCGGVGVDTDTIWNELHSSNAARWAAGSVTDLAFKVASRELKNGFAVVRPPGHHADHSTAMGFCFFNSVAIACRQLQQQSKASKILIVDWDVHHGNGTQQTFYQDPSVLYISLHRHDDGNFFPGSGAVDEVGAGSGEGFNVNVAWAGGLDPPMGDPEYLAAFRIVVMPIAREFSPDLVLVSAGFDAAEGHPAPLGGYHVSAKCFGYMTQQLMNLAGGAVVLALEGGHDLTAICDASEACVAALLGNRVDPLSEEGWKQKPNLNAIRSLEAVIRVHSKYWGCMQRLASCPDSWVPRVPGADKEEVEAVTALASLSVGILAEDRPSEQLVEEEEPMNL
Experimental: as §1, §2

[5] = target: T3, HDAC 11 (Homo sapiens, UniProt Q96DB2); assay: HDAC 11 fluorogenic assay kit; assay type: biochemical
T3 construct: purchased BPS Biosciences 50687
T3 sequence (Q96DB2 1-347): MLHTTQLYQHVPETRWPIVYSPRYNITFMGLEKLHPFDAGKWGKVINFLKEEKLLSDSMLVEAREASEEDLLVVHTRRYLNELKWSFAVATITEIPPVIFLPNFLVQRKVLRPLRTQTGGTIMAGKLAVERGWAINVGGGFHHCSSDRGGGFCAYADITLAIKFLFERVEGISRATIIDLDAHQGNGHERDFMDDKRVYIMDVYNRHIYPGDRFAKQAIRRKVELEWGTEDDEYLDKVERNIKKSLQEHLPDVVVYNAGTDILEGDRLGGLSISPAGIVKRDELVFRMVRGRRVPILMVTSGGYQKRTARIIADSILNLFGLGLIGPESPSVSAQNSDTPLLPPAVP
Experimental: as §1, §2

[6] = target: HDAC 3 (Homo sapiens, UniProt O15379)
Experimental: as §1, §2

[7] = target: T4, FAAH (Homo sapiens, UniProt O00519); assay: FAAH fluorescence-based inhibitory assay; assay type: biochemical
T4 sequence (O00519 1-579): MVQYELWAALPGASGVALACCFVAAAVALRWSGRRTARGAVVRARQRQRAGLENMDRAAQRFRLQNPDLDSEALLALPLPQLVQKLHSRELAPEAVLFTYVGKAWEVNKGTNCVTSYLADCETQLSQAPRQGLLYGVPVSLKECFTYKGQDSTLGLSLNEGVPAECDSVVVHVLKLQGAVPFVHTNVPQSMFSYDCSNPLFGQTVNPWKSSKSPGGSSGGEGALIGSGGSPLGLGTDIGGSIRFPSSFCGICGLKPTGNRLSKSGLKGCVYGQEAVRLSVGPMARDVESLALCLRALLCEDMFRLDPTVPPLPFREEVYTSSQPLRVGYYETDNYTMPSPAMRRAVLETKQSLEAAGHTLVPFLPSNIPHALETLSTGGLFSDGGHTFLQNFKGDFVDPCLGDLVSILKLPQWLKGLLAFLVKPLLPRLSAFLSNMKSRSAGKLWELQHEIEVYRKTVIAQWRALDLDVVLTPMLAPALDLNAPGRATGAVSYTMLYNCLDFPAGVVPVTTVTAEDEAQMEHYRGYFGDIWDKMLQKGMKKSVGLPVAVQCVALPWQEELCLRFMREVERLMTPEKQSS

[8] = target: HDAC1 (Homo sapiens, UniProt Q13547); assay: HDAC 1 fluorogenic assay kit
Sequence of HDAC1 (Q13547 whole entry): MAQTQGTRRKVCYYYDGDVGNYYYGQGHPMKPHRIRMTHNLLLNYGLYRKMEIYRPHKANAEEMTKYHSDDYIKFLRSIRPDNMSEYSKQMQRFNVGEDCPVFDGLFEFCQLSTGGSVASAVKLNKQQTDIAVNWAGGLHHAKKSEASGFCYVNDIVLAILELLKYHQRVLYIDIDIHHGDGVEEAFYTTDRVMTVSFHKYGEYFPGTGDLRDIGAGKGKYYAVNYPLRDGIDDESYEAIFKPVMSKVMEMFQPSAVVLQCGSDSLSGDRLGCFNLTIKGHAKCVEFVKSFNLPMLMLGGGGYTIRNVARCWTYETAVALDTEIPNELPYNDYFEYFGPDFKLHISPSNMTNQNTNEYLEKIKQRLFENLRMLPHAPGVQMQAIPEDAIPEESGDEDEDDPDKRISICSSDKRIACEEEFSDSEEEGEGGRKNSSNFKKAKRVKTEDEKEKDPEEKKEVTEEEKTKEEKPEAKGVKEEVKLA
Experimental: as §1, §2

Sequence of HDAC 3 (O15379 whole entry): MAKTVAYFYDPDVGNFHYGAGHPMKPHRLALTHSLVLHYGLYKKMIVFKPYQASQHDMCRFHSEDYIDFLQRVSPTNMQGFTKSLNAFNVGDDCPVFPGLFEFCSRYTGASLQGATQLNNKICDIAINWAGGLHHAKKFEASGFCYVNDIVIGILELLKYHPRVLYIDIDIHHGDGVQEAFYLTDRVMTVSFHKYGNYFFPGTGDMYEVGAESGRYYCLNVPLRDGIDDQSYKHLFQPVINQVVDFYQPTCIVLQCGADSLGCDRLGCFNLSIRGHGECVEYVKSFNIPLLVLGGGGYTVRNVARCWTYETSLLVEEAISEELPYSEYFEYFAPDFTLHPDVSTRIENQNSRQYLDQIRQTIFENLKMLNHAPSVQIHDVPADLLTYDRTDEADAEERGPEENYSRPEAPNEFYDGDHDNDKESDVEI
Sequence of HDAC 3 (Q9Y618 395-489 partner limits assumed): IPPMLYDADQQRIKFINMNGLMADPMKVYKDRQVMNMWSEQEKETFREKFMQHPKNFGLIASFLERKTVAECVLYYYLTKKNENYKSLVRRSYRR
Sequence of HDAC 5 (Q9UQL6 whole entry): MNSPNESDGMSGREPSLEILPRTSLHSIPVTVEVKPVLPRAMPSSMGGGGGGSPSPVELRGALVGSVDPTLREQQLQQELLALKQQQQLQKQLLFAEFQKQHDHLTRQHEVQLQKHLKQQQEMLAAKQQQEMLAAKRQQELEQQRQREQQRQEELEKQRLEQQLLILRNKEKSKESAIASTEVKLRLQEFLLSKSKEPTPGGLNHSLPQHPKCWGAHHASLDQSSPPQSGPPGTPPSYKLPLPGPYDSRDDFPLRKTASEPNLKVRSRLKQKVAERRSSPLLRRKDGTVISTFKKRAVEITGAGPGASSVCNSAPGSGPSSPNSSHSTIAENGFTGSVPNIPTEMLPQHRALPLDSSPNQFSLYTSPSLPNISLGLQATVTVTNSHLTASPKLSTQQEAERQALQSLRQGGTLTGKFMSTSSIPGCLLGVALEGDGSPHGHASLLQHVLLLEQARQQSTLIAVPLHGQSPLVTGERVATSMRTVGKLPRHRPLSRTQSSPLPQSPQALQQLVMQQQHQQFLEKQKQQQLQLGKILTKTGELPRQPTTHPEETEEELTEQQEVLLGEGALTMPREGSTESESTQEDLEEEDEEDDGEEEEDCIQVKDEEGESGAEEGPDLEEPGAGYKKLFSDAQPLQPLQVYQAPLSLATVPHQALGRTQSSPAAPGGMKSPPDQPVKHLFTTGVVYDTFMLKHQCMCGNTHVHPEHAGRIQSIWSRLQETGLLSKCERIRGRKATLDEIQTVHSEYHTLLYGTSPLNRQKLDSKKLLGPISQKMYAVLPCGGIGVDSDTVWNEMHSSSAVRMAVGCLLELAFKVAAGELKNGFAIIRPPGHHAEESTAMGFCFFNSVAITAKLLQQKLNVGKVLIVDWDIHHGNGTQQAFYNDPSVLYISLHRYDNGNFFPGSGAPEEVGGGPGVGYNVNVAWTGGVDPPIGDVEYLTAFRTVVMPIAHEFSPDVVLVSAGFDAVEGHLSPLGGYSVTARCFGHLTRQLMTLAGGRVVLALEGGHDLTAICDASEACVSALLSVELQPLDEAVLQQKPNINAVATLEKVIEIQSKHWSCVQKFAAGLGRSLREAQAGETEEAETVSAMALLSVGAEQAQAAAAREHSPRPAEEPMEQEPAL
Sequence of HDAC2 (Q92769 whole entry): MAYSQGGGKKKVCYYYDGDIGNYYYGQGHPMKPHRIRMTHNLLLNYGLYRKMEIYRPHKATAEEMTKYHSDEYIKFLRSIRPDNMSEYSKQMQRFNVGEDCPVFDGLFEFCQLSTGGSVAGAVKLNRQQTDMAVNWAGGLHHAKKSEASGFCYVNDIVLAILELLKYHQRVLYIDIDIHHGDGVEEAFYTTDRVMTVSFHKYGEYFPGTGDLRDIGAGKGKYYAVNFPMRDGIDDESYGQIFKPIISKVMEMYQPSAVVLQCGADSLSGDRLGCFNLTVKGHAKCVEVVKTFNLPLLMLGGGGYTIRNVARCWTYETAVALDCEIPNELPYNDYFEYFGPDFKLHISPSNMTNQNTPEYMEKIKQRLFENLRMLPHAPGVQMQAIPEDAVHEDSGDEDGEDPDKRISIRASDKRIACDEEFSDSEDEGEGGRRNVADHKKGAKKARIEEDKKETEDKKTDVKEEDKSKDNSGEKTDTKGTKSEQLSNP

Zinc Di-lysinate [Zn dilysinate]
HDAC 5 activity, % of water-treated controls ([1]; 25 ug/ml): 73%
HDAC 5 activity, % of water-treated controls ([1]; 50 ug/ml): 52%
HDAC 5 activity, % of water-treated controls ([1]; 100 ug/ml): 31%
HDAC 5 activity, % of water-treated controls ([1]; 200 ug/ml): 14%
HDAC 8 activity, % of water-treated controls ([2]; 5 ug/ml): 13%
HDAC 8 activity, % of water-treated controls ([2]; 25 ug/ml): 13%
HDAC 8 activity, % of water-treated controls ([2]; 50 ug/ml): 14%
HDAC 8 activity, % of water-treated controls ([2]; 100 ug/ml): 13%
HDAC 8 activity, % of water-treated controls ([2]; 200 ug/ml): 12%
HDAC 2 activity, % of water-treated controls ([3]; 25 ug/ml): 12%
HDAC 2 activity, % of water-treated controls ([3]; 50 ug/ml): 1%
HDAC 2 activity, % of water-treated controls ([3]; 100 ug/ml): 1%
HDAC 2 activity, % of water-treated controls ([3]; 200 ug/ml): 9%
HDAC 7 activity, % of water-treated controls ([4]; 25 ug/ml): 30%
HDAC 7 activity, % of water-treated controls ([4]; 50 ug/ml): 18%
HDAC 7 activity, % of water-treated controls ([4]; 100 ug/ml): 10%
HDAC 7 activity, % of water-treated controls ([4]; 200 ug/ml): 10%
HDAC 11 activity, % of water-treated controls ([5]; 25 ug/ml): 91%
HDAC 11 activity, % of water-treated controls ([5]; 50 ug/ml): 84%
HDAC 11 activity, % of water-treated controls ([5]; 100 ug/ml): 47%
HDAC 11 activity, % of water-treated controls ([5]; 200 ug/ml): 38%
HDAC 3 activity, % of water-treated controls ([6]; 10 ug/ml): 18%
HDAC 3 activity, % of water-treated controls ([6]; 50 ug/ml): 8%
HDAC 3 activity, % of water-treated controls ([6]; 200 ug/ml): 5%
FAAH IC50 [7]: 791.8 µg/mL
HDAC 1 activity, % of water-treated controls ([8]; 25 ug/ml): 52%
HDAC 1 activity, % of water-treated controls ([8]; 50 ug/ml): 44%
HDAC 1 activity, % of water-treated controls ([8]; 100 ug/ml): 32%

— patent publication US20260041620A1, “NOVEL AMINO ACID BASED SALTS, COMPOSITIONS AND METHODS FOR TREATING SKIN AND IMPROVING SKIN REJUVENATION AND LONGEVITY” (Sytheon Ltd, priority 2023, published 2026)
